The target of experiment [1] is T1, LecA (PA-IL) (Pseudomonas aeruginosa, UniProt Q05097).
T1 construct: soluble calcium-dependent homotetramer, one site per monomer
The experiment can be described thus: isothermal titration calorimetry. The class given is binding. The source says: isothermal titration calorimetry on LecA (PA-IL)

Experiment [2] has as its target T2, LecB (PA-IIL) (Pseudomonas aeruginosa, UniProt Q9HYN5).
T2 construct: soluble calcium-dependent homotetramer, one site per monomer
Briefly: isothermal titration calorimetry. The class given is binding.

The target in experiment [3] is T2, LecB (PA-IIL). Briefly: yeast agglutination inhibition, microscopy. The class given is biochemical. The conditions noted are these: LecB 625 μg/ml, yeast cells; complete inhibition. From the text: yeast agglutination inhibition, microscopy on LecB (PA-IIL)
Experiment [4] concerns the target T1, LecA (PA-IL). The experiment can be described thus: hemagglutination inhibition, microscopy. The class given is biochemical. The conditions noted are these: LecA 125 μg/ml, group O red blood cells; complete inhibition. The source says: hemagglutination inhibition, microscopy on LecA (PA-IL)

pKd: −log10 of the molar value. Like-named read-outs stand apart in the source and are kept apart here.

T1 sequence (Q05097 2-122): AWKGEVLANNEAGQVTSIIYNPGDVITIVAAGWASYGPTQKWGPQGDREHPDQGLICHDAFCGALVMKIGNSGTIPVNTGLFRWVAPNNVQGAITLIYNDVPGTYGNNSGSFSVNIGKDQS
T2 sequence (Q9HYN5 entry or part of it): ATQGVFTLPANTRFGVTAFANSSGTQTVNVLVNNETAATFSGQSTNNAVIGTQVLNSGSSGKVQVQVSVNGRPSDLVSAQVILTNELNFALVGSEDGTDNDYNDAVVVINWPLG

In the case of `OC[C@H]1OC(O)[C@H](O)[C@@H](O)[C@H]1O` (stereo partly drawn) [D-Galactose], the pKd in experiment [1] (read-out: LecA / KD, 300 μM lectin, 2 mM ligand, non-sigmoid curve, n apparent) was 3.76.

Consider `C[C@@H]1O[C@@H](S[C@@H]2O[C@H](CO)[C@H](O)[C@H](O)[C@H]2O)[C@@H](O)[C@H](O)[C@@H]1O` [compound 14, Thio‐L‐Fuc‐α(1,1)β‐D‐Gal], for which the results for the pKd in experiment [1] and in experiment [2] were 3.94 and 6.46, respectively.

Consider `C[C@@H]1O[C@@H](S[C@@H]2O[C@@H](C)[C@@H](O)[C@@H](O)[C@@H]2O)[C@@H](O)[C@H](O)[C@@H]1O` [compound 25, Thio‐L‐Fuc‐α(1,1)α‐L‐Fuc], for which, in experiment [3], the “LecB / MIC” value came to 6.10 µM.

For `C[C@@H]1O[C@@H](S[C@H]2O[C@H](CO)[C@@H](O)[C@H](O)[C@H]2O)[C@@H](O)[C@H](O)[C@@H]1O` [compound 26, Thio‐L‐Fuc‐α(1,1)α‐D‐Glc], the “LecB / MIC” value in experiment [3] amounted to 6.10 µM.

In the case of `C[C@@H]1O[C@@H](S[C@H]2O[C@H](CO)[C@H](O)[C@H](O)[C@H]2O)[C@@H](O)[C@H](O)[C@@H]1O` [compound 27, Thio‐L‐Fuc‐α(1,1)α‐D‐Gal], the values for the pKd in experiment [1] and in experiment [2] were 4.25 and 6.72, respectively.

Take `C[C@H]1O[C@H](S[C@H]2O[C@H](CO)[C@H](O)[C@H](O)[C@H]2O)[C@H](O)[C@@H](O)[C@H]1O` [compound 28, Thio‐D‐Fuc‐α(1,1)α‐D‐Gal]: the “LecA / MIC” value in experiment [4] was 390 µM.

With `OC[C@H]1O[C@H](S[C@H]2O[C@H](CO)[C@H](O)[C@H](O)[C@H]2O)[C@H](O)[C@@H](O)[C@H]1O` [compound 29, Thio‐D‐Gal‐α(1,1)α‐D‐Gal], in experiment [4], the “LecA / MIC” value was 97.5 µM.

In the case of `OC[C@H]1O[C@H](S[C@H]2O[C@H](CO)[C@@H](O)[C@H](O)[C@H]2O)[C@H](O)[C@@H](O)[C@H]1O` [compound 30, Thio‐D‐Gal‐α(1,1)α‐D‐Glc], the “LecA / MIC” value in experiment [4] was determined as 390 µM.

The values are drawn from PMC11753388, “Bispecific Thio‐Linked Disaccharides as Inhibitors of Pseudomonas Aeruginosa Lectins LecA (PA‐IL) and LecB (PA‐IIL): Dual‐Targeting Strategy” (Chemistry (Weinheim an Der Bergstrasse, Germany), 2024).
